e = 2'-O-(2-methoxyethyl) (MOE); d = 2'-deoxy (DNA)
Columns and labels:
[1] = Plasma cholesterol and triglyceride levels, dose response (Example 9); assay type: in vivo, mice
Description: (§1) Another group received subcutaneous injections of control oligonucleotide ISIS 141923 at a dose of 50 mg/kg/week for 6 weeks. One group of mice received subcutaneous injections of PBS for 6 weeks. The PBS-injected group served as the control group to which treatment groups were compared.
G. and Dyer, W. J. Can. J. Biochem. Physiol. 37: 911-917, 1959) and measured with an Olympus clinical analyzer (Hitachi Olympus AU400e, Melville, N.Y.). HDL and LDL cholesterol were individually measured by HPLC. Triglyceride levels were measured with the use of a commercially available triglyceride kit (DCL Triglyceride Reagent; Diagnostic Chemicals Ltd.). The results are presented in Tables 47-51 and are expressed in mg/dL.

SR-B1 = test: Liver SR-B1 mRNA expression (Example 9); assay type: in vivo, mice; conditions: s.c. 6 weeks; for Percent inhibition of liver mRNA expression, SR-B1: percentage increase or decrease compared to PBS control
Description: as §1
Liver RNA was isolated for real-time PCR analysis of ABCA1, ApoAI, and SR-B1. ATP-binding cassette transporter ABCA1 (member 1 of human transporter sub-family ABCA), also known as the cholesterol efflux regulatory protein (CERP) is a protein which in humans is encoded by the ABCA1 gene (Luciani, M. F. et al., Genomics. 1994. 21: 150-9). This transporter is a major regulator of cellular cholesterol and phospholipid homeostasis. Apolipoprotein A-I is a protein that in humans is encoded by the APOA1 gene (Breslow, J. L. et al., Proc. Natl. Acad. Sci. USA 1982. 79: 6861-5). Apolipoprotein A-I is the major protein component of HDL in plasma. The protein promotes cholesterol efflux from tissues to the liver for excretion. Scavenger receptor class B, type I (SR-BI) is an integral membrane protein found in numerous cell types/tissues, including the liver and adrenal (Acton, S. L. et al., J. Biol. Chem. 1994. 269: 21003-21009). It is best known for its role in facilitating the uptake of cholesteryl esters from high-density lipoproteins in the liver. Therefore, all three genes have a role in HDL regulation.
The primer probe set RTS1204 (forward sequence […], designated herein as SEQ ID NO: 122, reverse sequence […], designated herein as SEQ ID NO: 123, probe sequence AGGCCCAGACCTGTAAAGGCGAAGX, with X a fluorophore, designated herein as SEQ ID NO: 124) was used to measure abca1 levels. The primer probe set RTS14737 (forward sequence […], designated herein as SEQ ID NO: 125, reverse sequence […], designated herein as SEQ ID NO: 126, probe sequence CTGCAGGAACGGCTGGGCCCX, with X a fluorophore, designated herein as SEQ ID NO: 127) was used to measure apoA1 levels. The primer probe set mSRB-1 (forward sequence […], designated herein as SEQ ID NO: 128, reverse sequence ATGCGACTTGTCAGGCTGG, designated herein as SEQ ID NO: 129, probe sequence CGTGGAGAACCGCAGCCTCCATTX, with X a fluorophore, designated herein as SEQ ID NO: 130) was used to measure sr-b1 levels. The results are presented in Table 44 as percentage increase or decrease in the respective expression levels compared to the PBS control. Both primer probe sets produced similar results. The RNA expression levels were normalized to murine Cyclophilin. Treatment with ISIS 349517 caused an increase in ApoA1 and SR-B1 levels.

CETP protein = test: Plasma CETP protein by ELISA, normal or cholesterol-enriched chow (Example 6); assay type: in vivo, human; conditions: 50 mg/kg s.c. twice per week
Description: (§2) The normal chow-fed mice were divided into three treatment groups. The cholesterol-enriched chow-fed mice were divided into three treatment groups. […] One chow-fed group and one cholesterol-enriched chow-fed group received subcutaneous injections of saline twice weekly for 6 weeks. The saline-injected groups served as the control groups to which the corresponding oligonucleotide-treated groups were compared.
Plasma levels of CETP protein were measured by ELISA (Alpco, N.H.). […] The results are expressed as percentage inhibition compared to the PBS control.

[2] = Organ weights (Example 6); assay type: in vivo, mice; conditions: 50 mg/kg s.c. twice per week for 6 weeks, end of study
Description: as §2

human CETP mRNA = test: Antisense inhibition of human CETP mRNA in primary hepatocytes from huCETP transgenic mice (Example 4); assay type: cell-based, mouse; conditions: cytofectin, ~24 hours
How it was run: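 Primary hepatocytes from human CETP transgenic mice, 17,500 cells/well, transfected by cytofectin with 100 nM or 200 nM antisense oligonucleotide. After about 24 h, CETP mRNA quantified by real-time PCR, normalised to GAPDH, as percent inhibition versus untreated cells.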

With “ISIS 141923: CCTTCCCTGAAGGTTCCTCC, 5-10-5 MOE gapmer, a control oligonucleotide which has no known murine target (sugars from the 5' end e5 d10 e5, backbone and methylation of C not given here) [reference compound]” the HDL cholesterol levels ([1]; 50 mg/kg/wk, Week 0) was 87 mg/dL, the LDL cholesterol levels ([1]; 50 mg/kg/wk, Week 0) was 54 mg/dL and the Total cholesterol levels ([1]; 50 mg/kg/wk, Week 0) was 153 mg/dL. For the same substance, the Triglyceride levels ([1]; 50 mg/kg/wk, Week 0) was 49 mg/dL, the “% change in HDL levels compared to total cholesterol” value (shortened to “% change in HDL levels”) ([1]; 50 mg/kg/wk, Week 3) was −17% and the HDL cholesterol levels ([1]; 50 mg/kg/wk, Week 3) was 115 mg/dL. For the same substance, the LDL cholesterol levels ([1]; 50 mg/kg/wk, Week 3) was 42 mg/dL, the Total cholesterol levels ([1]; 50 mg/kg/wk, Week 3) was 164 mg/dL and the Triglyceride levels ([1]; 50 mg/kg/wk, Week 3) was 58 mg/dL. For the same substance, the “% change in HDL levels” value ([1]; 50 mg/kg/wk, Week 6) was −23%, the HDL cholesterol levels ([1]; 50 mg/kg/wk, Week 6) was 124 mg/dL and the LDL cholesterol levels ([1]; 50 mg/kg/wk, Week 6) was 47 mg/dL. The Total cholesterol levels ([1]; 50 mg/kg/wk, Week 6) was 180 mg/dL, the Triglyceride levels ([1]; 50 mg/kg/wk, Week 6) was 88 mg/dL and the “Percent inhibition of liver mRNA expression, SR-B1” value (shortened to “Percent inhibition … SR-B1”) (SR-B1; Dose 50 mg/kg/wk) was “+37%”.

For “ISIS 349511: 5-10-5 MOE gapmer CCCGACCTCCTTGGAGACTT (sugars from the 5' end e5 d10 e5, backbone and methylation of C not given here)”, the “Percent inhibition of plasma CETP protein levels” value (CETP protein; Cholesterol chow, Week 3) was 89%, the “Percent inhibition of plasma CETP protein levels” value (CETP protein; Cholesterol chow, Week 6) was 85% and the “Percent inhibition of plasma CETP protein levels” value (CETP protein; Normal chow, Week 3) was 81%. For the same substance, the “Percent inhibition of plasma CETP protein levels” value (CETP protein; Normal chow, Week 6) was 85%, the Kidney weight ([2]; Cholesterol chow) was 305 mg and the Liver weight ([2]; Cholesterol chow) was 1.4 g. For the same substance, the Spleen weight ([2]; Cholesterol chow) was 80 mg, the Kidney weight ([2]; Normal chow) was 248 mg and the Liver weight ([2]; Normal chow) was 1.0 g. The Spleen weight ([2]; Normal chow) was 74 mg, the “Percent inhibition of human CETP mRNA” value (human CETP mRNA; 100 nM) was 74% and the “Percent inhibition of human CETP mRNA” value (human CETP mRNA; 200 nM) was 95%.

Work on “ISIS 349517: 5-10-5 MOE gapmer CAGCACTTTAATGCCAGTGG (sugars from the 5' end e5 d10 e5, backbone and methylation of C not given here)” yielded an HDL cholesterol levels ([1]; 1.5 mg/kg/wk, Week 0) of 80 mg/dL, an LDL cholesterol levels ([1]; 1.5 mg/kg/wk, Week 0) of 58 mg/dL and a Total cholesterol levels ([1]; 1.5 mg/kg/wk, Week 0) of 154 mg/dL. The Triglyceride levels ([1]; 1.5 mg/kg/wk, Week 0) was 63 mg/dL, the “% change in HDL levels” value ([1]; 1.5 mg/kg/wk, Week 3) was 12% and the HDL cholesterol levels ([1]; 1.5 mg/kg/wk, Week 3) was 117 mg/dL. For the same substance, the LDL cholesterol levels ([1]; 1.5 mg/kg/wk, Week 3) was 35 mg/dL, the Total cholesterol levels ([1]; 1.5 mg/kg/wk, Week 3) was 171 mg/dL and the Triglyceride levels ([1]; 1.5 mg/kg/wk, Week 3) was 50 mg/dL. The “% change in HDL levels” value ([1]; 1.5 mg/kg/wk, Week 6) was 24%, the HDL cholesterol levels ([1]; 1.5 mg/kg/wk, Week 6) was 132 mg/dL and the LDL cholesterol levels ([1]; 1.5 mg/kg/wk, Week 6) was 38 mg/dL. It also gave a Total cholesterol levels ([1]; 1.5 mg/kg/wk, Week 6) of 180 mg/dL, a Triglyceride levels ([1]; 1.5 mg/kg/wk, Week 6) of 91 mg/dL and an HDL cholesterol levels ([1]; 5 mg/kg/wk, Week 0) of 88 mg/dL. For the same substance, the LDL cholesterol levels ([1]; 5 mg/kg/wk, Week 0) was 62 mg/dL, the Total cholesterol levels ([1]; 5 mg/kg/wk, Week 0) was 164 mg/dL and the Triglyceride levels ([1]; 5 mg/kg/wk, Week 0) was 57 mg/dL. The “% change in HDL levels” value ([1]; 5 mg/kg/wk, Week 3) was 11%, the HDL cholesterol levels ([1]; 5 mg/kg/wk, Week 3) was 130 mg/dL and the LDL cholesterol levels ([1]; 5 mg/kg/wk, Week 3) was 31 mg/dL. The Total cholesterol levels ([1]; 5 mg/kg/wk, Week 3) was 172 mg/dL, the Triglyceride levels ([1]; 5 mg/kg/wk, Week 3) was 51 mg/dL and the “% change in HDL levels” value ([1]; 5 mg/kg/wk, Week 6) was 23%. It also gave an HDL cholesterol levels ([1]; 5 mg/kg/wk, Week 6) of 151 mg/dL, an LDL cholesterol levels ([1]; 5 mg/kg/wk, Week 6) of 36 mg/dL and a Total cholesterol levels ([1]; 5 mg/kg/wk, Week 6) of 202 mg/dL. It also gave a Triglyceride levels ([1]; 5 mg/kg/wk, Week 6) of 85 mg/dL, an HDL cholesterol levels ([1]; 15 mg/kg/wk, Week 0) of 86 mg/dL and an LDL cholesterol levels ([1]; 15 mg/kg/wk, Week 0) of 54 mg/dL. The Total cholesterol levels ([1]; 15 mg/kg/wk, Week 0) was 152 mg/dL, the Triglyceride levels ([1]; 15 mg/kg/wk, Week 0) was 47 mg/dL and the “% change in HDL levels” value ([1]; 15 mg/kg/wk, Week 3) was 26%. It also gave an HDL cholesterol levels ([1]; 15 mg/kg/wk, Week 3) of 141 mg/dL, an LDL cholesterol levels ([1]; 15 mg/kg/wk, Week 3) of 32 mg/dL and a Total cholesterol levels ([1]; 15 mg/kg/wk, Week 3) of 185 mg/dL. The Triglyceride levels ([1]; 15 mg/kg/wk, Week 3) was 48 mg/dL, the “% change in HDL levels” value ([1]; 15 mg/kg/wk, Week 6) was 42% and the HDL cholesterol levels ([1]; 15 mg/kg/wk, Week 6) was 164 mg/dL. For the same substance, the LDL cholesterol levels ([1]; 15 mg/kg/wk, Week 6) was 40 mg/dL, the Total cholesterol levels ([1]; 15 mg/kg/wk, Week 6) was 217 mg/dL and the Triglyceride levels ([1]; 15 mg/kg/wk, Week 6) was 85 mg/dL. It also gave an HDL cholesterol levels ([1]; 50 mg/kg/wk, Week 0) of 77 mg/dL, an LDL cholesterol levels ([1]; 50 mg/kg/wk, Week 0) of 59 mg/dL and a Total cholesterol levels ([1]; 50 mg/kg/wk, Week 0) of 145 mg/dL. The Triglyceride levels ([1]; 50 mg/kg/wk, Week 0) was 41 mg/dL, the “% change in HDL levels” value ([1]; 50 mg/kg/wk, Week 3) was 43% and the HDL cholesterol levels ([1]; 50 mg/kg/wk, Week 3) was 139 mg/dL. For the same substance, the LDL cholesterol levels ([1]; 50 mg/kg/wk, Week 3) was 33 mg/dL, the Total cholesterol levels ([1]; 50 mg/kg/wk, Week 3) was 184 mg/dL and the Triglyceride levels ([1]; 50 mg/kg/wk, Week 3) was 49 mg/dL. For the same substance, the “% change in HDL levels” value ([1]; 50 mg/kg/wk, Week 6) was 37%, the HDL cholesterol levels ([1]; 50 mg/kg/wk, Week 6) was 123 mg/dL and the LDL cholesterol levels ([1]; 50 mg/kg/wk, Week 6) was 38 mg/dL. The Total cholesterol levels ([1]; 50 mg/kg/wk, Week 6) was 170 mg/dL, the Triglyceride levels ([1]; 50 mg/kg/wk, Week 6) was 60 mg/dL and the “Percent inhibition of plasma CETP protein levels” value (CETP protein; Cholesterol chow, Week 3) was 97%. For the same substance, the “Percent inhibition of plasma CETP protein levels” value (CETP protein; Cholesterol chow, Week 6) was 96%, the “Percent inhibition of plasma CETP protein levels” value (CETP protein; Normal chow, Week 3) was 95% and the “Percent inhibition of plasma CETP protein levels” value (CETP protein; Normal chow, Week 6) was 91%. The Kidney weight ([2]; Cholesterol chow) was 317 mg, the Liver weight ([2]; Cholesterol chow) was 1.8 g and the Spleen weight ([2]; Cholesterol chow) was 93 mg. For the same substance, the Kidney weight ([2]; Normal chow) was 279 mg, the Liver weight ([2]; Normal chow) was 1.6 g and the Spleen weight ([2]; Normal chow) was 113 mg. For the same substance, the “Percent inhibition of human CETP mRNA” value (human CETP mRNA; 100 nM) was 85%, the “Percent inhibition of human CETP mRNA” value (human CETP mRNA; 200 nM) was 98% and the “SR-B1 levels (liver mRNA)” value (SR-B1; huCETP transgenic mice, Western diet) was “increase”. The “Percent inhibition … SR-B1” value (SR-B1; Dose 1.5 mg/kg/wk) was “+33%”, the “Percent inhibition … SR-B1” value (SR-B1; Dose 5 mg/kg/wk) was “+34%” and the “Percent inhibition … SR-B1” value (SR-B1; Dose 15 mg/kg/wk) was “+50%”. For the same substance, the “Percent inhibition … SR-B1” value (SR-B1; Dose 50 mg/kg/wk) was “+42%”.

— patent US20130053430A1, “MODULATION OF CETP EXPRESSION” (Isis Pharmaceuticals, Inc., priority 2010, published 2013)
